Among the data in patent US20050009840A1 (SUGEN, INC., priority 2003, published 2005) are IC50 values, retold here.

The experiment deals with T1, Met kinase domain (GST fusion protein) (Homo sapiens, UniProt P08581).
T1 construct: Purified GST fusion protein containing the Met kinase domain
T1 sequence (P08581 1078-1345 limits assumed): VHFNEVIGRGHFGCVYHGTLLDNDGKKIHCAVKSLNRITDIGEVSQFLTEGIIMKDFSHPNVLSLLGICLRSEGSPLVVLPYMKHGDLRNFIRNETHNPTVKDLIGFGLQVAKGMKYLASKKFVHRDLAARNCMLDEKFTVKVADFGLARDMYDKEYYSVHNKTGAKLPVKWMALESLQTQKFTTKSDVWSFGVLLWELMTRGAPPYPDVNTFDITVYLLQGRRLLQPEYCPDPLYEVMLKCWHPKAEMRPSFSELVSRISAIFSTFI
In words: Met transphosphorylation assay (ELISA, poly(glu-tyr) substrate).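 Also: Cell-free ELISA with plate-bound poly(Glu:Tyr 4:1) phosphorylated by GST-fused Met kinase domain plus ATP and Mn2+, phosphotyrosine detected by anti-phosphotyrosine antibody with HRP and ABTS read-out.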 It counts as biochemical. Particulars: plain numbers in column Met IC50 (μM) of Table 2; read-out: Met IC50. (In general: In an ELISA, binding on a coated surface is turned into a signal by an enzyme label.)
Description: General procedure is as follows: a compound is introduced to cells expressing the test kinase, either naturally or recombinantly, for a selected period of time after which, if the test kinase is a receptor, a ligand known to activate the receptor is added. The cells are lysed and the lysate is transferred to the wells of an ELISA plate previously coated with a specific antibody recognizing the substrate of the enzymatic phosphorylation reaction. Non-substrate components of the cell lysate are washed away and the amount of phosphorylation on the substrate is detected with an antibody specifically recognizing phosphotyrosine compared with control cells that were not contacted with a test compound.
Met Transphosphorylation Assay
This assay is used to measure phosphotyrosine levels on a poly(glutamic acid:tyrosine, 4:1) substrate as a means for identifying agonists/antagonists of met transphosphorylation of the substrate.
PBS, Gibco Catalog # 450-1300EB • 4. 50 mM HEPES • 5. […] Purified GST fusion protein containing the Met kinase domain, SUGEN, Inc. • 7. TBST Buffer. • 8. 10% aqueous (MilliQue H2O) DMSO. • 9. […] 2× Kinase Dilution Buffer: for 100 mL, mix 10 mL 1M HEPESat pH 7.5 with 0.4 mL 5% BSA/PBS, 0.2 mL 0.1 M sodium orthovanadate and 1 mL 5M sodium chloride in 88.4 mL dH2O. • 11. 4× ATP Reaction Mixture: for 10 mL, mix 0.4 mL 1 M manganese chloride and 0.02 mL 0.1 M ATP in 9.56 mL dH2O. • 12. 4× Negative Controls Mixture: for 10 mL, mix 0.4 mL 1 M manganese chloride in 9.6 mL dH2O. • 13. […] 500 mM EDTA. • 15. Antibody Dilution Buffer: for 100 mL, mix 10 mL 5% BSA/PBS, 0.5 mL 5% Carnation® Instant Milk in PBS and 0.1 mL 0.1 M sodium orthovanadate in 88.4 mL TBST. • 16. Rabbit polyclonal antophosphotyrosine antibody, SUGEN, Inc. • 17. Goat anti-rabbit horseradish peroxidase conjugated antibody, Biosource, Inc. • 18. ABTS Solution: for 1 L, mix 19.21 g citric acid, 35.49 g Na2HPO4 and 500 mg ABTS with sufficient dH2O to make 1 L. • 19. ABTS/H2O2: mix 15 mL ABST solution with 2μL H2O2 five minutes before use. • 20. 0.2 M HCl Procedure: • 1. Coat ELISA plates with 2 μg Poly(Glu-Tyr) in 100 μL PBS, hold-overnight at 4° C. • 2. Block plate with 150 μL of 5% BSA/PBS for 60 min. • 3. Wash plate twice with PBS then once with 50 mM Hepes buffer pH 7.4. • 4. Add 50 μl of the diluted kinase to all wells. (Purified kinase is diluted with Kinase Dilution Buffer. Final concentration should be 10 ng/well.) • 5. Add 25 μL of the test compound (in 4% DMSO) or DMSO alone (4% in dH2O) for controls to plate. • 6. Incubate the kinase/compound mixture for 15 minutes. • 7. Add 25 μL of 40 mM MnCl2 to the negative control wells. • 8. Add 25 μL ATP/MnCl2 mixture to the all other wells (except the negative controls). Incubate for 5 min. • 9. Add 25 μL 500 mM EDTA to stop reaction. • 10. Wash plate 3× with TBST. • 11. Add 100 μL rabbit polyclonal anti-Ptyr diluted 1:10,000 in Antibody Dilution Buffer to each well. Incubate, with shaking, at room temperature for one hour. • 12. Wash plate 3× with TBST. • 13. […] Add 100 μL per well and incubate at room temperature, with shaking, for one hour. • 14. Wash plate 1× with PBS. • 15. Add 100 μl of ABTS/H2O2 solution to each well. • 16. If necessary, stop the development reaction with the addition of 100 μl of 0.2M HCl per well. • 17.
As to `CC(Oc1cc(-c2cccc(C(=O)N3CCC[C@@H]3CN3CCCC3)c2)cnc1N)c1c(Cl)cccc1Cl` (stereo partly drawn) [Example I-396, (3-{6-Amino-5-[1-(2,6-dichloro-phenyl)-ethoxy]-pyridin-3-yl}-phenyl)-((R)-2-pyrrolidin-1-ylmethyl-pyrrolidin-1-yl)-methanone], the IC50 (in general, the concentration that inhibits the measured activity by half) was found to be 0.18 µM. The result for `CC(Oc1cc(-c2cccc(C(=O)N3CC[C@H](N)C3)c2)cnc1N)c1c(Cl)cccc1Cl` (stereo partly drawn) [Example I-397, (3-{6-Amino-5-[1-(2,6-dichloro-phenyl)-ethoxy]-pyridin-3-yl}-phenyl)-((S)-3-amino-pyrrolidin-1-yl)-methanone] reads 0.055 µM; that for `CC(Oc1cc(-c2cccc(C(=O)N3CC[C@@H](N)C3)c2)cnc1N)c1c(Cl)cccc1Cl` (stereo partly drawn) [Example I-398, (3-{6-Amino-5-[1-(2,6-dichloro-phenyl)-ethoxy]-pyridin-3-yl}-phenyl)-((R)-3-amino-pyrrolidin-1-yl)-methanone], 0.072 µM; that for `CC(Oc1cc(-c2ccc(C(=O)NCCN3CCOCC3)cc2)cnc1N)c1c(Cl)cccc1Cl` (stereo not drawn) [Example I-401, 4-{6-Amino-5-[1-(2,6-dichloro-phenyl)-ethoxy]-pyridin-3-yl}-N-(2-morpholin-4-yl-ethyl)-benzamide], 0.073 µM. The result for `CC(Oc1cc(-c2ccc(C(=O)NC3CCN(C)CC3)cc2)cnc1N)c1c(Cl)cccc1Cl` (stereo not drawn) [Example I-403, 4-{6-Amino-5-[1-(2,6-dichloro-phenyl)-ethoxy]-pyridin-3-yl}-N-(1-methyl-piperidin-4-yl)-benzamide] reads 0.062 µM; that for `CC(Oc1cc(-c2ccc(C(=O)N3C[C@@H](C)N[C@@H](C)C3)cc2)cnc1N)c1c(Cl)cccc1Cl` (stereo partly drawn) [Example I-404, (4-{6-Amino-5-[1-(2,6-dichloro-phenyl)-ethoxy]-pyridin-3-yl}-phenyl)-((3R,5S)-3,5-dimethyl-piperazin-1-yl)-methanone], 0.052 µM; that for `CC(=O)N1CCN(CCNC(=O)c2ccc(-c3cnc(N)c(OC(C)c4c(Cl)cccc4Cl)c3)cc2)CC1` (stereo not drawn) [Example I-405, N-[2-(4-Acetyl-piperazin-1-yl)-ethyl]-4-{6-amino-5-[1-(2,6-dichloro-phenyl)-ethoxy]-pyridin-3-yl}-benzamide], 0.062 µM. The result for `CC(Oc1cc(-c2ccc(C(=O)NCCCN3CCCC3)cc2)cnc1N)c1c(Cl)cccc1Cl` (stereo not drawn) [Example I-406, 4-{6-Amino-5-[1-(2,6-dichloro-phenyl)-ethoxy]-pyridin-3-yl}-N-(3-pyrrolidin-1-yl-propyl)-benzamide] reads 0.061 µM; that for `CC(Oc1cc(-c2ccc(C(=O)N3CC[C@H](N)C3)cc2)cnc1N)c1c(Cl)cccc1Cl` (stereo partly drawn) [Example I-407, (4-{6-Amino-5-[1-(2,6-dichloro-phenyl)-ethoxy]-pyridin-3-yl}-phenyl)-((S)-3-aminopyrrolidin-1-yl)-methanone], 0.05 µM. On to `CC(Oc1cc(-c2ccc(C(=O)N3CC[C@@H](N)C3)cc2)cnc1N)c1c(Cl)cccc1Cl` (stereo partly drawn) [Example I-408, (4-{6-Amino-5-[1-(2,6-dichloro-phenyl)-ethoxy]-pyridin-3-yl}-phenyl)-((R)-3-amino-pyrrolidin-1-yl)-methanone], for which the IC50 worked out at 0.049 µM.

As to `CC(Oc1cc(-c2ccc(C(=O)N3CCC(N4CCCC4)CC3)cc2)cnc1N)c1c(Cl)cccc1Cl` (stereo not drawn) [Example I-410, (4-{6-Amino-5-[1-(2,6-dichloro-phenyl)-ethoxy]-pyridin-3-yl}-phenyl)-(4-pyrrolidin-1-yl-piperidin-1-yl)-methanone], the IC50 came to 0.055 µM.

Regarding `CC(Oc1cc(-c2ccc(C(=O)N3CCN(C)CC3)cc2)cnc1N)c1c(Cl)cccc1Cl` (stereo not drawn) [Example I-411, (4-{6-Amino-5-[1-(2,6-dichloro-phenyl)-ethoxy]-pyridin-3-yl}-phenyl)-(4-methyl-piperazin-1-yl)-methanone], the half-maximal inhibitory concentration (IC50) was determined as 0.053 µM.
